# Data from patent publication US12102612B2, “Pharmaceutical composition comprising hydroquinone derivative for preventing or treating obesity or nonalcoholic steatohepatitis” (BIOTOXTECH CO., LTD., priority 2018, dated 2024).
# “Also recorded” adds a separate entry of the source.
# Experiments:
# [1] = system: MCD diet-fed NASH model (12 weeks); test: Efficacy in NASH model fed with MCD diet for 12 weeks; type: in vivo, male C57BL/6 mice; conditions: MCD diet 12 weeks
# Excerpt: The duration of feeding MCD diet was extended to a total of 12 weeks to increase the induction level of NASH. To this end, male C57BL/6 mice at 7 weeks of age were fed with a methionine and choline-deficient diet for 8 weeks to induce nonalcoholic fatty liver and then subjected to the same repeat administration program at the same doses for 4 weeks as in Table 2.
# [2] = system: MCD diet-fed NASH model (8 weeks); test: Efficacy in NASH model fed with methionine and choline deficient (MCD) diet for 8 weeks; type: in vivo, male C57BL/6 mice; conditions: MCD diet 8 weeks; for alleviative effect on NASH / inhibitory activity against NASH: compared to the negative control, RSV and DDB complex 200 mg/kg
# Excerpt: A methionine and choline deficient (MCD) diet-fed model, in which steatosis has been induced as a result of the supply of a diet deficient in methionine and choline, which each play an important role in beta oxidation and very low-density lipoprotein, (VLDL) synthesis, is widely used as a model for observing an effect of alleviating NASH because it suffers from histopathologically serious lobular inflammation.
# An MCD diet (RESEARCH DIETS, Product No: A02082002B) was fed 7-week-old male C57BL/6 mice for 4 weeks to induce nonalcoholic fatty liver and then for an additional 4 weeks during which the hydroquinone derivative compound 2,3,5-trimethylhydroquinone-1-hexylether (compound 1) according to the present invention and the comparative control drugs were orally administered to the mice at the specific doses repeatedly as indicated for test groups G3-G8 in Table 2. Alleviative effects on NASH were assessed by clinicopathological and histopathological examinations.
# The normal group was fed with a normal diet (RESEARCH DIETS, Product No: A02082003B), but not the MCD diet. To the negative control, only the excipient 0.5% methyl cellulose (MC) aqueous solution was administered after the MCD diet was fed thereto. […] For resveratrol and the DDB hepatoprotectant, the daily dose was set forth to be 200 mg/kg.
# The liver tissues were resected from mice fed with MCD diet for 8 weeks and prepared into hematoxylin-eosin (H&E) stained slides, as in the histopathological examination method of Test Example 1. Based on the criteria of Table 1, changes in 1) steatosis, 2) lesions such as hepatic lobular inflammation, etc. (lobular inflammation), and 3) ballooning degeneration of hepatocytes (ballooning) were analyzed and the scores were summed to afford NAFLD activity scores for evaluating therapeutic effects on NASH.
# [3] = system: western diet NASH mouse models; conditions: cited from earlier work
# [4] = system: normal persons and nonalcoholic fatty liver patients; conditions: 10-25 mg per adult; cited from earlier work
# [5] = system: CD-1(ICR) mice; conditions: mouse, in vivo; cited from earlier work
# [6] = system: rats; test: Toxicity assay of repetitive oral administration for 13 weeks; type: in vivo; conditions: repeated for 13 weeks
# [7] = system: adult; test: Clinical trial phase 1 (single and 14-day repetitive administration); type: in vivo, human; conditions: for abnormal responses (such as dyslipidemia) after repetitive administration: up to 1,000 mg per adult for 14 days
# [8] = system: high-fat diet-induced insulin resistance; test: Insulin resistance assay in high-fat diet-fed mice; type: in vivo, male C57BL/6 mice; conditions: week 7 of administration, vs negative control and other drug controls
# Method: An insulin resistance assay was conducted on week 7 of administration of compound 1 to examine the effect of compound 1 on the insulin resistance induced by high-fat diet. For the insulin resistance assay, the mice were fast for 4 hours and intraperitoneally injected with insulin (0.7 IU/kg), followed by measuring blood glucose levels every 30 min. Insulin resistance was digitized for quantitative comparison. In this regard, while pre-insulin blood levels were set forth to be baselines, areas under the curves of reduced blood glucose levels were digitized into iAUC values (FIG. 14). Here, a smaller iAUC value means higher insulin resistance and a larger iAUC value means higher insulin sensitivity.
# [9] = system: FFC diet-fed non-alcoholic steatohepatitis model; test: Efficacy in fat-, fructose- and cholesterol-rich (FFC) diet-fed non-alcoholic steatohepatitis model; type: in vivo, male C57BL/6 mice
# Excerpt: FFC diet (fat-, fructose-, and cholesterol-rich diet) (RESEARCH DIETS, Product No.: D12079B) was fed to male C57BL/6 mice 6-7 weeks old for 16 weeks to induce nonalcoholic fatty liver. Only animals with a NAFLD activity score (NAS) of 3.2 or more were selected by biopsy. Two weeks after biopsy, the animals were divided into three test groups including a negative control injected with a 0.5% methyl cellulose (MC) aqueous solution only (FFC control) and compound 1 groups injected with a solution of compound 1 (2,3,5-trimethylhydroquinone-1-hexylether compound, 30 mg/kg and 200 mg/kg) in a 0.5% MC aqueous solution. Compound 1 was administered for a total of 2 months and evaluated for alleviative efficacy for NASH by histopathological examination.
# For histopathological examination, the mice were sacrificed and subjected to hepatectomy. The liver tissues thus obtained were prepared into hematoxylin-eosin (H&E) stained slides. In brief, the resected liver tissues were fixed in 4% paraformaldehyde at 4° C. for 24 hours, washed with flowing water, embedded into paraffin, and sectioned into blocks 3-4 μm thick. The sectioned tissue was attached to a coated slide, de-paraffinized with xylene, and rehydrated with graded alcohols (99%, 95%, 90%, 80%, and 70% ethanol (EtOH)) before histological staining. The sectioned tissues were stained with hematoxylin for 5 min and washed with flowing water for 5 min, following by destaining with 1% HCl alcohol and ammonia. Subsequently, the tissues were washed with flowing water for 10 min, counterstained with eosin for 1 min, and dehydrated in the reverse order of the hydration before mounting.
# The H&E-stained slides were histopathologically assessed under a microscope and scored according to the NAFLD activity score (NAS) criteria given in Table 1. NAFLD activity scores are expressed as a sum of assessment scores for changes in 1) steatosis, 2) lesions such as hepatic lobular inflammation, etc. (lobular inflammation), and 3) ballooning degeneration of hepatocytes (ballooning) and are widely used for evaluating the severity of NASH.
# [10] = system: rats; test: Single-dose oral administration toxicity assay for rats; type: in vivo; conditions: single oral dose as high as 2000 mg/kg
# [11] = system: high-fat diet-fed obesity and NASH model; test: Efficacy in obesity and NASH model fed with high-fat diet (HFD); type: in vivo, male C57BL/6 mice
# Method: High-fat diet with 60 kcal % (RESEARCH DIETS, Product No: D12492) was fed to 7-week-old male C57BL/6 mice for 16 weeks to induce nonalcoholic fatty liver, followed by repeatedly administering test substances, along with the high-fat diet, via an oral route for 9 weeks from weeks 17 to 25. Alleviative effects on NASH were assessed by clinicopathological and histopathological examinations.
# The test groups included a normal control which was not fed with HFD, but with a normal diet (10 kcal % fat diet, RESEARCH DIETS, Product No: D12450B), a negative control which was fed with HFD and then with the excipient 0.5% methyl cellulose (MC) aqueous solution alone, compound 1 (2,3,5-trimethylhydroquinone-1-hexylether)-administered groups (30, 100, 200 mg/kg), and comparative controls (obeticholic acid 30 mg/kg, pioglitazone 10 mg/kg, and DDB hepatoprotectant 200 mg/kg).
# During repeatedly oral administration of the test substances for 9 weeks as in the assay method of (1), the mice were observed and recorded for weight gain, food intake, and general symptoms.
# Liver tissues were resected from HFD-fed mice and prepared into hematoxylin-eosin (H&E) stained slides, as in the histopathological examination method of Test Example 1. Based on the criteria of Table 1, changes in 1) steatosis, 2) lesions such as hepatic lobular inflammation, etc. (lobular inflammation), and 3) ballooning degeneration of hepatocytes (ballooning) were analyzed and the scores were summed to afford NAFLD activity scores for evaluating therapeutic effects on NASH.
# [12] = system: beagle dogs; test: Maximum tolerance dose in beagle dogs; type: in vivo
# [13] = system: mice; conditions: repeated for 13 weeks; cited from earlier work
# [14] = system: nonalcoholic fatty liver in mice; conditions: cited from earlier work
compound,measurement,setting,value
"Oc1ccc(C=Cc2cc(O)cc(O)c2)cc1 [Resveratrol, resveratrol, reference compound]",alleviative effect on NASH,"[1]; 200 mg/kg, compared to the negative control",did not exhibit an alleviative effect on NASH
same,alleviative effect on NASH / inhibitory activity against NASH,[2],did not exhibit an alleviative effect on NASH
"CC[C@H]1[C@@H](O)[C@@H]2[C@H](CC[C@]3(C)[C@@H]([C@H](C)CCC(=O)O)CC[C@@H]23)[C@@]2(C)CC[C@@H](O)C[C@@H]12 [Obeticholic acid, obeticholic acid]","dose that aggravated NAFLD (liver fibrosis worsen, ALT level increased)",[3],≥ 40 mg/kg
same,total cholesterol and LDL cholesterol levels (side effect),[4],increasing total cholesterol and LDL cholesterol levels
same,dose causing serious side effects such as death of animals,[5],≥ 175 mg/kg
"CCCCCCOc1cc(C)c(O)c(C)c1C [compound 1, 2,3,5-trimethylhydroquinone-1-hexylether]","side effects such as death, weight loss, organ failure",[6]; dose as high as 500 mg/kg,"did not invoke significant side effects; also recorded: no side effects such as death, weight loss, organ failure, etc. were detected"
same,"changes in weight gain, food consumption, urological and serological examinations","[6]; up to 500 mg/kg, FIG. 12",No changes attributed to the administration of compound 1 were detected
same,abnormal responses after single dose,"[7]; single dose of up to 2,000 mg per adult",no abnormal responses were observed
same,abnormal responses (such as dyslipidemia) after repetitive administration,[7],"no abnormal responses, such as dyslipidemia, were reported; also recorded: no abnormal responses were observed"
same,abnormal responses (such as dyslipidemia) after repetitive administration,"[7]; listed as 2,3,5-trimethylhydroquinone-1-hexylether",no abnormal responses were observed
same,blood glucose level upon insulin administration,"[8]; 4 h fast, insulin 0.7 IU/kg i.p., FIG. 13",reduced in blood glucose level more fast
same,suppressive effect on high-fat diet-induced insulin resistance (iAUC values),[8]; FIG. 14,higher suppressive effect on high-fat diet-induced insulin resistance
same,fatty liver,"[9]; 30 and 200 mg/kg for 2 months, dose-dependent, FIG. 2",alleviated
same,NAFLD activity scores,"[9]; 30 and 200 mg/kg for 2 months, dose-dependent, FIG. 3",alleviated
same,lobular inflammatory cellular infiltration (lobular inflammation),"[9]; compound 1 30 and 200 mg/kg for 2 months, vs FFC control, FIG. 1",decrease lobular inflammatory cellular infiltration
same,lobular inflammatory cellular infiltration,"[1]; oral 30 and 200 mg/kg for 4 weeks, vs MCD control, dose-dependent, FIG. 7",reduced lobular inflammatory cellular infiltration
same,NAFLD activity scores,"[1]; vs MCD control, dose-dependent, FIG. 8",lowered NAFLD activity scores
same,anti-inflammatory effect compared to pioglitazone (PGZ) and obeticholic acid (OCA),"[1]; PGZ 10 mg/kg, OCA 30 mg/kg",excellent anti-inflammatory effect
same,mortality,[10],did not cause mortality
same,suppressive effect on lobular inflammation,"[11]; 200 mg/kg, compared to the other drug groups",remarkably highly suppressive effect
same,fatty liver,"[11]; 30, 100, 200 mg/kg, vs HFD control, dose-dependent",alleviated
same,hepatic lobular cellular infiltration,"[11]; 30, 100, 200 mg/kg, vs HFD control, dose-dependent, FIG. 15",alleviated
same,blood levels of cholesterol,"[11]; HFD model, compared to the negative control, FIG. 19(A)",reduced
same,blood levels of triglyceride,"[11]; HFD model, compared to the negative control, FIG. 19(B)",reduced
same,ALT,"[11]; HFD model, relative to normal levels, FIG. 17",recovered
same,AST,"[11]; HFD model, relative to normal levels, FIG. 18",recovered
same,ALT levels vs the other drug controls,"[11]; HFD model, FIG. 17",further reduced
same,AST levels vs the other drug controls,"[11]; HFD model, FIG. 18",further reduced
same,accumulation of visceral fats such as epididymal fats (epididymal fat weights),"[11]; autopsy after 9 weeks oral administration, FIG. 11",excellent effect of inhibiting the accumulation of visceral fats
same,"therapeutic effects on NASH by histopathological examinations (lobular inflammation, NAFLD activity scores)","[11]; compared to the other drugs, FIGS. 15 and 16",excellent therapeutic effects on NASH
same,weight gain increments resulting from the intake of high-fat diet,"[11]; oral 30, 100, 200 mg/kg for 9 weeks, vs HFD control, FIG. 9",remarkably reduced
same,ALT level,"[2]; 200 mg/kg, vs negative control and comparative control groups, FIG. 6",remarkably reduced
same,alleviative effect on NASH / inhibitory activity against NASH,[2],excellent inhibitory activity against NASH
same,effect of reducing lobular inflammatory cellular infiltration,"[2]; oral 30 and 200 mg/kg for 4 weeks, vs MCD control, FIG. 4",remarkable
same,NAFLD activity scores,[2]; FIG. 5,reduce
same,anti-inflammatory efficacy compared to pioglitazone (PGZ) and obeticholic acid (OCA),"[2]; PGZ 10 mg/kg, OCA 30 mg/kg",excellent anti-inflammatory efficacy
same,maximum tolerance dose,[12],"2,000 mg/kg"
"CCc1ccc(CCOc2ccc(CC3SC(=O)NC3=O)cc2)nc1 (stereo not shown) [Pioglitazone, pioglitazone]",dose at which subject death occurred,[13],≥ 320 mg/kg
same,dose causing cardiac adverse effects,[13],≥ 100 mg/kg
same,dose that aggravates fatty liver,[14],25 mg/kg
